The text below walks through data of PubChem BioAssay (NCI).

Among the test systems are COLO 205 colon; MALME-3M melanoma; MDA-N; SK-MEL-5 melanoma; 786-0 renal; TK-10 renal; HT29 colon; HOP-92 NSCLC; SR leukemia.
What all share (assay): NCI-60 cell line screen, 48 h

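The compound was tested at five concentrations on cells cultured in 96-well plates, with a 48-hour exposure period. Here, GI50 denotes the concentration required for 50% inhibition of growth. The concentration for full growth arrest is given as TGI.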

`COC(=O)c1cc2c(s1)-c1nccc3c1c(nc1ccccc13)C2=O`: the GI50 was 50.2 µM in the experiment with COLO 205 colon; 16.4 µM with MALME-3M melanoma; 32.9 µM in the experiment on MDA-N; 33.8 µM with SK-MEL-5 melanoma; > 100 µM in the experiment with 786-0 renal; > 100 µM in the experiment with TK-10 renal. Also, the GI50 in the experiment with HT29 colon was > 100 µM. For the same molecule, the TGI is > 100 µM in the experiment on COLO 205 colon; 59.5 µM in the experiment on MALME-3M melanoma; > 100 µM in the experiment with MDA-N; > 100 µM in the experiment with SK-MEL-5 melanoma; > 100 µM in the experiment with 786-0 renal; > 100 µM in the experiment with TK-10 renal. Moreover, the TGI in the experiment with HT29 colon was > 100 µM.

Take `CCc1c(Cl)c(C)cc(O)c1Cl`: the TGI was > 100 µM with COLO 205 colon; > 100 µM in the experiment with MALME-3M melanoma; 41.3 µM in the experiment on MDA-N; 92.3 µM in the experiment on HOP-92 NSCLC; 28.6 µM in the experiment with SK-MEL-5 melanoma; > 100 µM in the experiment on 786-0 renal. The TGI is > 100 µM in the experiment on TK-10 renal and 77.6 µM in the experiment on HT29 colon.

Consider `CN(C)CCC(=O)C(=Cc1ccc(O)cc1)C(=O)CCN(C)C`, for which the GI50 in the experiment on COLO 205 colon was 50.9 µM; in the experiment on MALME-3M melanoma it was > 100 µM; in the experiment on HOP-92 NSCLC, 95.6 µM; in the experiment with SR leukemia it was 93.2 µM; in the experiment on SK-MEL-5 melanoma, > 100 µM; in the experiment with 786-0 renal, > 100 µM. Besides, the GI50 in the experiment with TK-10 renal was > 100 µM; in the experiment with HT29 colon it was 34.4 µM. The TGI with COLO 205 colon, in the experiment with MALME-3M melanoma, in the experiment on HOP-92 NSCLC, in the experiment on SR leukemia, in the experiment with SK-MEL-5 melanoma and in the experiment on 786-0 renal was > 100 µM in each case. The TGI in the experiment on TK-10 renal and in the experiment with HT29 colon was > 100 µM throughout.

`CN(C)C(=S)Sc1ccc([N+](=O)[O-])cc1[N+](=O)[O-]`: the GI50 in the experiment with COLO 205 colon was 0.8 µM; with MALME-3M melanoma, 1.38 µM; in the experiment on HOP-92 NSCLC, 2.95 µM; in the experiment with SR leukemia, 0.296 µM; in the experiment on SK-MEL-5 melanoma, 1.73 µM; with 786-0 renal it was 5.3 µM. Besides, the values for the GI50 in the experiment with TK-10 renal and in the experiment on HT29 colon were 2.29 µM and 0.325 µM, respectively. The TGI in the experiment on COLO 205 colon amounted to 3.02 µM; with MALME-3M melanoma, 3.17 µM; in the experiment on HOP-92 NSCLC it was 11.2 µM; with SR leukemia, 16.8 µM; in the experiment on SK-MEL-5 melanoma, 5.82 µM; in the experiment with 786-0 renal it was 16 µM. The TGI with TK-10 renal is 5.85 µM; in the experiment with HT29 colon it was 1.67 µM.

Regarding `CCc1ccc(/C=C/c2ccc(O)c3ncccc23)[n+](C)c1`, the GI50 was 8.07 µM in the experiment on COLO 205 colon; 13.7 µM with MALME-3M melanoma; 0.0293 µM in the experiment on HOP-92 NSCLC; 2.76 µM with SR leukemia; 3.55 µM with SK-MEL-5 melanoma; > 100 µM with 786-0 renal. Besides, the results for the GI50 with TK-10 renal and with HT29 colon were > 100 µM and > 29.3 µM, respectively. Further, the TGI in the experiment with COLO 205 colon is > 89.8 µM; in the experiment with MALME-3M melanoma, > 100 µM; in the experiment on HOP-92 NSCLC, 3.54 µM; in the experiment on SR leukemia, > 25.9 µM; in the experiment with SK-MEL-5 melanoma, > 100 µM; in the experiment with 786-0 renal, > 100 µM. Besides, the TGI with TK-10 renal and with HT29 colon was > 100 µM each time.

Regarding `CN1CC[C@@H](c2c(O)cc(O)c3c(=O)cc(-c4ccc(C(F)(F)F)cc4Cl)oc23)[C@@H]1CO`, the GI50 with COLO 205 colon is 15.1 µM; in the experiment on MALME-3M melanoma it was 18.4 µM; with HOP-92 NSCLC it was 13 µM; in the experiment with SR leukemia, 3.21 µM; in the experiment with SK-MEL-5 melanoma, 15.4 µM; in the experiment with 786-0 renal it was 13.3 µM. For the same molecule, the figures for the GI50 with TK-10 renal and in the experiment with HT29 colon were 14.7 µM and 17.6 µM, respectively. Further, the TGI in the experiment on COLO 205 colon turned out to be 32.9 µM; with MALME-3M melanoma it was 36.9 µM; with HOP-92 NSCLC, 40.3 µM; with SR leukemia, 17 µM; in the experiment with SK-MEL-5 melanoma, 30.7 µM; with 786-0 renal, 31.9 µM. The TGI in the experiment on TK-10 renal was determined as 43.5 µM; in the experiment on HT29 colon it was 33.9 µM.

For `CC1(C)N=C(N)N=C(N)N1c1ccc(CCCCc2ccc(Cl)c(S(=O)(=O)F)c2)c(Cl)c1`, the GI50 with COLO 205 colon is 1.71 µM; with MALME-3M melanoma, 2.36 µM; with HOP-92 NSCLC, 1.08 µM; in the experiment with SR leukemia, 0.186 µM; with SK-MEL-5 melanoma, 0.471 µM; in the experiment with 786-0 renal, 1.63 µM. The GI50 is 12.3 µM in the experiment on TK-10 renal and 0.264 µM in the experiment on HT29 colon. Besides, the TGI is 7.98 µM with COLO 205 colon; 12.5 µM in the experiment on MALME-3M melanoma; 15.2 µM in the experiment on HOP-92 NSCLC; 3.36 µM in the experiment on SR leukemia; 11.8 µM with SK-MEL-5 melanoma; > 39.7 µM in the experiment with 786-0 renal. In addition, the TGI in the experiment with TK-10 renal turned out to be 48.8 µM; in the experiment with HT29 colon it was 15.7 µM.

Take `S=c1[nH]c2c(Cl)c(Cl)c(Cl)c(Cl)c2[nH]1`: the TGI in the experiment with COLO 205 colon turned out to be 32.3 µM; in the experiment with MALME-3M melanoma, 38.5 µM; in the experiment with MDA-N, 51.4 µM; with HOP-92 NSCLC, 53.6 µM; with SK-MEL-5 melanoma, 37.2 µM; with 786-0 renal, 63.3 µM. The TGI with TK-10 renal came out at 55.4 µM; in the experiment with HT29 colon, 48.1 µM.

For the molecule `COc1cc(/C=C/C(=O)c2cccc(-n3cc(-c4ccc(Cl)cc4)[nH]c3=O)c2)ccc1O`, the GI50 is 4.88 µM in the experiment on COLO 205 colon; 5.99 µM with MALME-3M melanoma; 1.52 µM in the experiment with HOP-92 NSCLC; 11.8 µM in the experiment with SR leukemia; 1.88 µM with SK-MEL-5 melanoma; 2.54 µM with 786-0 renal. The GI50 with TK-10 renal was 6.6 µM; with HT29 colon, 2.97 µM. The TGI was 16 µM in the experiment with COLO 205 colon; 22.2 µM in the experiment with MALME-3M melanoma; 7.05 µM in the experiment on HOP-92 NSCLC; > 100 µM in the experiment on SR leukemia; 5.22 µM in the experiment on SK-MEL-5 melanoma; 6.69 µM in the experiment with 786-0 renal. Also, the TGI was > 65.5 µM with TK-10 renal and > 100 µM in the experiment with HT29 colon.

`O=C(NNc1ccccc1)C(=O)NNc1ccccc1`: the GI50 is 2.73 µM in the experiment with COLO 205 colon; > 100 µM with MALME-3M melanoma; > 100 µM with HOP-92 NSCLC; 0.919 µM in the experiment on SR leukemia; 10.8 µM in the experiment on SK-MEL-5 melanoma; 53.9 µM in the experiment with 786-0 renal. Also, the GI50 with TK-10 renal was 0.919 µM; in the experiment on HT29 colon, > 100 µM. Besides, the TGI in the experiment on COLO 205 colon is 48.5 µM; in the experiment with MALME-3M melanoma, > 100 µM; with HOP-92 NSCLC, > 100 µM; in the experiment on SR leukemia it was > 100 µM; in the experiment on SK-MEL-5 melanoma, > 100 µM; in the experiment on 786-0 renal, > 100 µM. Moreover, the TGI in the experiment on TK-10 renal and with HT29 colon was > 100 µM each time.
